Data on 3 compounds can be found in patent US10874856B2, “Device for treating a cutaneous ulcer” (priority 2013, dated 2020).

In one data set the test system is digital ulcers. The settings on record: cited from earlier work.
Data set [1] concerns Raynaud's attacks and ulcers. The settings on record: intravenous, versus placebo; cited from earlier work.
Data set [2] has as its system skin blood flow. The experiment in a line: Continuous cathodal iontophoresis on the forearm of healthy volunteers, skin blood flow by laser Doppler imaging. It is filed as in vivo, human. The settings on record: 250 μM treprostinil, cathodal iontophoresis 20 minutes.
Experimental: A clinical study then included 20 healthy volunteers. These subjects received 3 concentrations of treprostinil via continuous cathodal iontophoresis on the forearm for 20 minutes and a control iontophoresis of 0.9% NaCl. Skin blood flow was quantified by laser Doppler imaging.
This effect is expressed as cutaneous vascular conductance (CVC; percentage of the baseline) recorded up to 24 hours.
To implement iontophoresis on the forearm, several iontophoresis chambers containing treprostinil liquid solution in contact with a cathode, and an anode at a distance of about 15 cm from the cathode, are placed on the inside of the forearm of each patient. […] Treprostinil liquid solution was in direct contact with the subject's skin.
Data set [3] in a line: Treprostinil quantification in dermal dialysate fluid (microdialysis, HPLC-MS/MS), forearm. It is filed as in vivo, human. The settings on record: post-iontophoresis. The text has this: The use of treprostinil to impregnate a primary dressing has the advantage of making it possible to cover larger areas of skin. However, it was not obvious that the results obtained by iontophoresis of treprostinil in liquid solution form in direct contact with the patient's skin could be obtained with the embodiment in accordance with the invention.

Data set [4] is described as follows: Treprostinil plasma assay (HPLC-MS/MS) after iontophoresis on forearm and fingers. The data set is classed as in vivo, human. The settings on record: after iontophoresis for 20 minutes on the forearm and for 2 hours on the fingers. As to the method: However, the fact that the patient's skin is in extended contact with an active substance is likely to involve the systemic passage of treprostinil. The Inventors thus assayed treprostinil in the plasma using high-performance liquid chromatography coupled to tandem mass spectrometry after iontophoresis for 20 minutes on the forearm and for 2 hours on the fingers.

The subject of data set [5] is blood flow in the pad of the finger. The data set is described as follows: Iontophoresis of treprostinil impregnating a primary dressing on the finger pad, laser speckle contrast imaging of blood flow. The data set is classed as in vivo, human.
Experimental: FIG. 3 reproduces an image obtained by laser speckle contrast imaging of blood flow in the pad of the index finger treated by iontophoresis of treprostinil impregnating a primary dressing and in the pad of the middle finger of the same hand treated by iontophoresis of 0.9% NaCl impregnating another primary dressing, in a healthy subject. The iontophoresis was carried out under the following conditions: 240 mC/cm^2, direct current. Two 7.2 cm^2 Ag—AgCl electrodes (Iogel, Iomed Inc., Salt Lake City, Utah, USA) were soaked in 1.5 ml of treprostinil or NaCl solution (double-blind).
These drug-soaked electrodes were connected to the cathode, while the anode was connected to passive electrodes attached at a distance of 10 cm. Low-voltage computer-controlled generators were used (PF 751 Perilont USB Power Supply, Perimed, Järfálla, Sweden). The voltage was recorded continuously in order to estimate the skin's resistance.
FIG. 4 reproduces an image obtained by laser speckle contrast imaging of blood flow in the pad of a ring finger treated by iontophoresis of treprostinil impregnating a primary dressing and in the pad of the middle finger of the same hand treated by iontophoresis of 0.9% NaCl, in a subject with scleroderma. The variation in blood flow is represented in same manner as in FIG. 3.
Data set [6] in a line: Plasma treprostinil concentration in scleroderma patients post-iontophoresis. The data set is classed as in vivo. The settings on record: human, other: cathodal iontophoresis, 250 μM, 30 minutes post-iontophoresis.
For data set [7], the system named is skin blood flow. The conditions noted are these: rat.
Data set [8] has as its system skin blood flow. The conditions noted are these: 12 scleroderma patients, 250 μM, direct current, 240 mC/cm^2.

Take `COc1ccccc1Oc1c(NS(=O)(=O)c2ccc(C(C)(C)C)cc2)nc(-c2ncccn2)nc1OCCO` [bosentan]: in the data set on digital ulcers (RAPIDS-2 study), the “risk of developing new ulcers” value is on record as “significantly reduced the risk”. In addition, in the data set with digital ulcers (in vivo), the “healing of preexisting ulcers” value is on record as “no advantage”.
As for `CC#CCC(C)[C@H](O)/C=C/[C@@H]1[C@H]2C/C(=C/CCCC(=O)O)C[C@H]2C[C@H]1O` (stereo partly drawn) [iloprost], the “frequency of Raynaud's attacks and healing time of ulcers” value in data set [1] is “provided an advantage”.
As for `CCCCC[C@H](O)CC[C@@H]1[C@H]2Cc3cccc(OCC(=O)O)c3C[C@H]2C[C@H]1O` [treprostinil], in the data set on skin blood flow [2], the “cutaneous vascular conductance AUC80 min” value is listed as 31,897±24,390 % BL·min. The “time treprostinil present in the dermis of the forearm (average)” value in data set [3] is reported as “up to 8 hours”. Further, the “systemic passage (plasma quantification)” value in [4] was “negligible systemic passage”. In addition, the “vasomotor effect on finger pad, healthy subject (FIG. 3)” value in data set [5] (healthy subject, index finger, 240 mC/cm^2, direct current) is on record as “marked vasomotor effect”. Further, in data set [5] (subject with scleroderma, ring finger), the “vasomotor effect on finger pad, subject with scleroderma (FIG. 4)” value is reported as “marked vasomotor effect”. This compound also returned a concentration at 30 min in [6] of less than 1.8 pg/mL. For the same compound, in the data set with skin blood flow [7] (20 minutes of cathodal iontophoresis at 100 μA, liquid solution in direct contact with skin), the cutaneous vasodilatation entry was “caused cutaneous vasodilatation”. Further, in the data set on skin blood flow [7] (cathodal iontophoresis), the “persistence of effect after iontophoresis is over” value is on record as “at least 60 minutes”. The “local toxicity, clinically and after systematic skin biopsies” value in the data set on skin blood flow [7] (in vivo) was “No sign of local toxicity”. Moreover, the “effect on skin blood flow absent current or with anodal current” value with skin blood flow [7] (no current or anodal current) is reported as “no effect on skin blood flow”. In the data set with skin blood flow [8], the skin blood flow entry is “increase in skin blood flow” and the tolerance result is “well tolerated”.
